From ChEMBL document CHEMBL5131569, “SAGE-718: A First-in-Class N-Methyl-d-Aspartate Receptor Positive Allosteric Modulator for the Potential Treatment of Cognitive Impairment” (J Med Chem, 2022)

Assays:
[1] = Drug concentration in CD-1 mouse brain at 7.5 mg/kg, ip administered for 90 mins; assay type: ADME, organism-based; details: read-out: Ct
Mus musculus = test: Reversal of DOI-induced hyperlocomotion in CD-1 mouse assessed as reduction in rearing at 5 mg/kg, ip administered 90 mins prior to DOI induction and measured upto 30 mins post DOI treatment (reference value: 59.8 +/- 8.6 Counts); assay type: functional; details: time <= 120 min, 2 h
[2] = Clearance in Beagle dog by LC-MS/MS analysis; assay type: ADME, Canis lupus familiaris; details: in vivo

concentration at 1.5 h [1]: 1190 ng/g
clearance [2]: 3.33 mL/min/kg
Structure (SMILES): C[C@H](CC[C@](C)(O)C(F)(F)F)[C@H]1CC[C@H]2[C@@H]3CC=C4C[C@@](C)(O)CC[C@]4(C)[C@H]3CC[C@]12C [DALZANEMDOR]
Activity (Mus musculus): 27.1 Counts
